pEC50, pIC50: −log10 of the molar value.
What was measured:
RXRβ = test system: T1, RXRβ; assay: nuclear receptor panel reporter assay, antagonist mode; assay type: cell-based, Homo sapiens; settings: control ligand not told for RXRβ
T1 construct: gene RXRB; not described
Excerpt: nuclear receptor panel reporter assay, antagonist mode on RXRβ

PPARγ = target: T2, PPARγ (Homo sapiens, UniProt P37231); assay: nuclear receptor panel assay, agonist mode; assay type: cell-based; settings: read-out: ED50 values
T2 construct: gene PPARG
T2 sequence (P37231 1-505): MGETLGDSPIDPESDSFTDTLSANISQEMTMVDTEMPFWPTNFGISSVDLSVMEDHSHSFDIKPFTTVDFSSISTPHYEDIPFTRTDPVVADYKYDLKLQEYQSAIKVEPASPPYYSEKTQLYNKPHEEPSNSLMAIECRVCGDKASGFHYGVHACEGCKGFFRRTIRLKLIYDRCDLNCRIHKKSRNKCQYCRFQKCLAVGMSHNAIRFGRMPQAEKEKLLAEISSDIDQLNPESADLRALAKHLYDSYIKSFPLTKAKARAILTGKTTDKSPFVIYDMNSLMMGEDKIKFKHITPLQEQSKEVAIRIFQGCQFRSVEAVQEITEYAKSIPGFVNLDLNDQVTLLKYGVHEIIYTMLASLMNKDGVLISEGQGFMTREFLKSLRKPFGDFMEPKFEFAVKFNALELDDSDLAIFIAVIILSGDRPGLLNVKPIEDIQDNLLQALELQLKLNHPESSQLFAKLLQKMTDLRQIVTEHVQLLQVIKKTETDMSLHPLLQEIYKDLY
Excerpt: nuclear receptor panel assay, agonist mode on PPARγ

FXR [1] = target: T3, FXR (Homo sapiens, UniProt Q96RI1); assay: luciferase reporter gene assay, antagonist mode; assay type: cell-based
T3 construct: gene NR1H4
T3 sequence (Q96RI1 1-486): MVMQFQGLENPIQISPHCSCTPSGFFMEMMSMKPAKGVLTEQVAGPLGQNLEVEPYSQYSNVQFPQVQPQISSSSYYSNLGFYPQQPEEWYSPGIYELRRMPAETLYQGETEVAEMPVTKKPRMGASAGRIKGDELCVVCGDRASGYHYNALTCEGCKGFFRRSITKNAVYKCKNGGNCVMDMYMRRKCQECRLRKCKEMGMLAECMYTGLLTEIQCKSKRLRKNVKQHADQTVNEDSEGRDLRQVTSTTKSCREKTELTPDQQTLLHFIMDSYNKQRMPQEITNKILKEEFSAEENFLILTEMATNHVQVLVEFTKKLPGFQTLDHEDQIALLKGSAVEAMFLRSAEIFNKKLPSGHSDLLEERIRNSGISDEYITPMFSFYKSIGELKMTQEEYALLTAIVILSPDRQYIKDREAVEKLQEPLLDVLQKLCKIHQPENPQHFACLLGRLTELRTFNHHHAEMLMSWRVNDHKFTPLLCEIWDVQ
Excerpt: luciferase reporter gene assay, antagonist mode on FXR

FXR [2] = target: T3, FXR; assay: luciferase reporter gene assay, agonist mode; assay type: cell-based; settings: read-out: ED50 values
Excerpt: luciferase reporter gene assay, agonist mode on FXR

Compound: CC(C)(C)n1ncc(C(=O)Nc2ccc(Cl)c(CN3CCC(Oc4ccc(C(=O)O)cc4)CC3)c2)c1-c1ccc(F)cc1 [compound‐T1, 4‐({1‐[5‐({[1‐tert‐butyl‐5‐(4‐fluorophenyl)‐1H‐pyrazol‐4‐yl]carbonyl}amino)‐2‐chlorobenzyl]piperidin‐4‐yl}oxy)benzoic acid]
- pIC50 (RXRβ): < 5.00
- pEC50 (PPARγ): < 5.00
- pIC50 (FXR [1]): 8.68
- pEC50 (FXR [2]): < 5.00

From paper PMC5842406, “Antidyslipidemic potential of a novel farnesoid X receptor antagonist in a hamster model of dyslipidemia: Comparative studies of other nonstatin agents” (Pharmacology Research & Perspectives, 2018)
